Test results: patent publication US9983218B2, “Indole and indoline derivatives and methods of use thereof” (AbbVie Inc., priority 2008, dated 2018)
Entries after “also recorded” stand apart in the source; their conditions may differ.

How the values were obtained:
mice = assay: Inhibitory avoidance in mouse; format: in vivo; settings: 24-hour recall, significant at 0.11 mg/kg and 1.1 mg/kg, FIG. 4
Experimental: Inhibitory Avoidance in Mouse: The inhibitory avoidance task involves the uses of a two-compartment step through apparatus (Ugo Basile, Collegeville, Pa.) that measures the animal's ability to remember a brief noxious stimulus (foot shock), and is considered a measure of trial learning, and memory consolidation. Briefly, mice were placed in a lighted compartment of the apparatus where the latency to enter into the preferred dark compartment is recorded. […] Retention testing was conducted 24 hours later with the animal again placed in the lighted compartment where its latency to reenter the dark side of the apparatus was measured (no shock). Increasing retention latency was regarded as an index of memory consolidation (Bitner, R. S.; Bunnelle, W. H.; et al. Broad-spectrum efficacy across cognitive domains by α7 nicotinic acetylcholine receptor agonism correlates with activation of ERK1/2 and CREB phosphorylation pathways. J. Neurosci. 2007, 27(39), 10578-10587.).

[1] = system: primary postnatal (P0) cortical cells; assay: Neurite outgrowth assay (Aβ1-42-induced reduction of neurite outgrowth, high content microscopy); format: cell-based, rat; settings: for Emax: Rattus norvegicus, maximum response relative to 300 nM dimebolin, at the concentration given, read-out: Maximum Effect (of % 300 nM Dimebolin)
Experimental: In addition to PC12 cells, other cellular model systems may also be used. Rat cortical cells were cultured and prepared for high content microscopy analysis as previously described (Hu, M.; Schurdak, M. E.; et al. High content screen microscopy analysis of Aβ1-42-induced neurite outgrowth reduction in rat primary cortical neurons: Neuroprotective effects of α7 neuronal nicotinic acetylcholine receptor ligands. Brain Res. 2007, 1151, 227-235.). Briefly, cortical cell cultures were plated at density of 5×10^5 cells/mL onto poly-D-lysine coated 96-well plates and maintained in a cell incubator at 37° C. with 5% CO2. Experiments were performed using 6-7 day-old cortical cell cultures by treating with test compounds. In some experiments, the effect of test compounds on reversing Aβ toxicity were also measured (Hu, M.; Schurdak, M. E.; et al. High content screen microscopy analysis of Aβ1-42-induced neurite outgrowth reduction in rat primary cortical neurons: Neuroprotective effects of α7 neuronal nicotinic acetylcholine receptor ligands. Brain Res. 2007, 1151, 227-235.). For assessment of neuroprotective effects, cells were first pretreated with test compounds for about 5 hours. Medium was then replaced with the medium containing freshly prepared about 5 μM Aβ1-42 peptide in the absence or presence of the test compounds for 3 days. The untreated group contained the same percentage of vehicle (DMSO) as in the treatment groups. Cells were fixed with approximately 4% paraformaldehyde containing 0.5% Hoechst 33342 for about 15 minutes, followed by three washes using PBS (pH 7.4) and blocked with 10% donkey serum in PBS for 1 hour at room temperature. The cells were then incubated overnight at about 4° C. with mouse anti-tubulin monoclonal antibody (1:100) for staining neurons and rabbit anti-GFAP (1:1000) for staining glia. In the next day, cells were incubated with FITC-labeled anti-mouse and TRITC-labeled anti-rabbit antibodies (1:1000) for about 1 hour at room temperature. After fixing and staining the cells, nuclei (360/400 nm excitation and 465/300 nm emission filters), neuron (475/350 nm excitation and 535/400 nm emission filters) and glial cell (535 nm excitation and 610 nm emission filters) images were collected using the ImageExpress Micro automatic fluorescent microscopy system (Molecular Devices, Sunnyvale, Calif.) employing a Nikon 10× Plan Fluor objective and Cool Snap HQ CCD camera. The Neurite Outgrowth module in the MetaMorph Imaging software was used to automatically count total cell number, number of neuron cells, and the extent of neurite outgrowth.
In the graph of FIG. 2, 100% response was the response observed for untreated cells. Exposure to Aβ1-42 produced a decrease in neurite outgrowth. Treatment of cells with compounds prior to and concomitantly with Aβ1-42 gave a neuroprotective effect with neurite outgrowth maintained or enhanced relative to untreated cells.

[2] = system: SK-N-SH human neuroblastoma cells; assay: Serum deprivation/JC-1 mitochondrial membrane potential (MMP) assay; format: cell-based
Outline: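 Cells were serum-deprived ~18 h in MEM with or without compound (DMSO ≤1%), then stained with JC-1 for 35 min at 37° C. The red/green fluorescence ratio (560/595 vs 485/535 nm) was normalized to the peak response of 10 μM dimebolin. EC50 came from one curve fit to mean data (n=2-3, duplicates).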

[3] = system: mouse model of multiple sclerosis; settings: in vivo administration; cited from earlier work
PC12 cells = assay: Number of neuron-like cells in nerve growth factor-differentiated PC12 cells (HCS microscopy); format: cell-based; settings: NGF-differentiated PC12 cells, 24 hours post-treatment, normalized to 10 μM dimebolin; FIG. 1
Experimental: For example, studies were conducted using PC12 cells plated in 96-well plates, treated with or without nerve growth factor (100 ng/mL) for 6 days. Compounds were then added at various concentrations (ranging from 0.1 nM to 30 μM), and incubated for 24 hours. Cells were then fixed and stained by neuron marker β-tubulin (green), and nuclei were stained by Hoechst 33342 (blue). Images were collected using the ImageXpress Micro automatic fluorescent microscopy system (Molecular Devices, Sunnyvale, Calif.) employing a Nikon 10× Plan Fluor objective and Cool Snap HQ CCD camera. The Neurite Outgrowth module in the MetaMorph Imaging software was used to automatically count neuron-like number, and the extent of neurite outgrowth (See, FIG. 1).

Male Sprague Dawley rats = assay: Analgesic effect against neuropathic pain (L5/L6 spinal nerve ligation, von Frey filaments); format: in vivo; settings: rat
Experimental: Animals were prepared for testing, by use of a surgical procedure that induces neuropathic pain in one paw. Male Sprague Dawley rats were purchased from Charles River (Portage, Mich.). Prior to surgery, animals were housed in groups and maintained in a temperature-regulated environment. Following nerve ligation surgery, animals were housed in groups, and had access to food and water ad libitum.
The L5 and L6 spinal nerves of anesthetized rats were tightly ligated in a manner described previously (see Kim and Chung, Pain (1992) vol. 50 pp. 355-363). An incision was made on the dorsal portion of the hip and the muscle was blunt-dissected to reveal the spinal processes. The L6 transverse process was removed, and the left side L5 and L6 spinal nerves were tightly ligated with 5.0 braided silk suture. The wound was cleaned, the membrane sewn with 4.0 dissolvable Vicryl suture and the skin closed with wound clips. The paw affected by the surgical procedure (the left paw) develops an allodynic response, a hypersensitivity to mechanical and other stimuli; neuropathic pain is assessed as an increased sensitivity in the surgically affected (left) allodynic paw compared to the control paw on the right side, and measured by comparing the response of the (left side) allodynic paw to the response of the unaffected right side control paw.
For the assessment of neuropathic pain, mechanical allodynia in the affected paw of animals that had undergone spinal nerve ligation was evaluated using testing with von Frey filaments. As described previously by S. R. Chaplan, et al (“Quantitative assessment of tactile allodynia in the rat paw” J. Neurosci. Meth. (1994) vol. 53 pp. 55-63), two weeks following surgery rats were acclimated to a testing box constructed of plexiglass with a wire mesh floor which allowed access to the plantar surface of the animal's hindpaws. […] The efficacy of the compound in reducing neuropathic pain at different doses was determined by comparing response in the surgery-affected paw versus the response in the control paw. […]

[4] = system: Patients with mild-to-moderate Alzheimer's disease; settings: cited from earlier work
[5] = system: primary rat cortical neurons; settings: comparable to that evoked by BDNF; cited from earlier work

## Cc1ccc2c(c1)c1c(n2CCc2ccc(C)nc2)C[C@@H]2CC[C@H]1N2 (single isomer, unassigned) [Example 5]
mice
  latency to reenter the dark side (punishment side): significantly increased; also recorded: concentration-dependent improvement
[1]
  Emax: 123%
[1]; pretreatment about 5 hours, then about 5 μM Aβ1-42 with test compound for 3 days, FIG. 2
  Aβ1-42-induced reduction of neurite outgrowth: significant attenuation; also recorded: neurite outgrowth levels similar to or enhanced relative to untreated control cells
[2]; Homo sapiens, SK-N-SH, percent maximal intensity in JC-1 ratio normalized to 10 μM dimebolin, read-out: JC-1 max %
  Emax: 209%
[2]; Homo sapiens, SK-N-SH cells, serum deprivation ~18 hours, JC-1 ratio normalized to peak value for 10 μM dimebolin, single curve fit to mean data of n=2-3, read-out: EC50
  EC50: 13 µM
[2]; SK-N-SH cells, relative to 10 μM dimebolin (100% response), FIG. 3
  maintenance of mitochondrial function (JC-1 ratio) under cellular stress: maintained mitochondrial function in a dose dependent manner; also recorded: concentration-dependent enhancement of mitochondrial function maintenance

## O=C1C=C(c2ccccc2)C(=O)N1c1cccc(Cl)c1 [1-(3-chlorophenyl)-3-phenyl-pyrrole-2,5-dione]
[3]
  development of the disease: significantly prevented the development of the disease

## Cc1ccc2c(c1)c1c(n2CCc2ccc(C)nc2)CC2CCC1N2C (stereo not drawn) [Example 1, 2,11-dimethyl-5-[2-(6-methylpyridin-3-yl)ethyl]-5,6,7,8,9,10-hexahydro-7,10-epiminocyclohepta[b]indole]
PC12 cells
  number of neuron-like cells: concentration-dependent effects

## Cc1ccc2c(c1)c1c(n2CCc2ccc(C)nc2)C2CCN(CC2)C1 [Example 2, 9-methyl-6-[2-(6-methylpyridin-3-yl)ethyl]-3,4,5,6-tetrahydro-1H-2,5-ethanoazepino[4,3-b]indole]
[1]
  Emax: 117%
Male Sprague Dawley rats; 10 mg/kg intraperitoneal injection, 30 minutes before testing, **p<0.01, ***p<0.001 vs. vehicle, FIG. 6
  reduction in mechanical allodynia: 58%
Male Sprague Dawley rats; i.p. 1, 3, and 10 mg/kg
  adverse effects: No complicating adverse effects were observed
Male Sprague Dawley rats; intraperitoneally 30 minutes before testing, maximum effect 15 g
  withdrawal threshold for allodynic limb (pressure applied to elicit a pain response): concentration-dependent improvement

## Cc1ccc2c(c1)c1c(n2CCc2ccc(C)nc2)CCN(C)C1 [dimebolin, 2,3,4,5-tetrahydro-2,8-dimethyl-5-[2-(6-methyl-3-pyridinyl)ethyl]-1H-pyrido[4,3-b]indole]
[4]; 20 mg three times a day (60 mg/day)
  clinical course of disease (improvement over baseline for ADAS-Cog): significant improvement
[4]; clinical studies of dimebolin
  most frequent adverse event: dry mouth
[5]
  neurite outgrowth: increase neurite outgrowth
